How the values were obtained:
[1] = target: T1, Glycogen synthase kinase-3 beta (Homo sapiens, UniProt P49841); assay: Inhibition of His-tagged full length human recombinant GSK3beta using [YRRAAVPPSPSLSRHSSPHQ-(pS)EDEEE] substrate and pre-incubarted for 20 mins before [gamma-33P]ATP addition and measured after 2 hrs by radiometric kinase assay
Target sequence in this assay (P49841 whole entry): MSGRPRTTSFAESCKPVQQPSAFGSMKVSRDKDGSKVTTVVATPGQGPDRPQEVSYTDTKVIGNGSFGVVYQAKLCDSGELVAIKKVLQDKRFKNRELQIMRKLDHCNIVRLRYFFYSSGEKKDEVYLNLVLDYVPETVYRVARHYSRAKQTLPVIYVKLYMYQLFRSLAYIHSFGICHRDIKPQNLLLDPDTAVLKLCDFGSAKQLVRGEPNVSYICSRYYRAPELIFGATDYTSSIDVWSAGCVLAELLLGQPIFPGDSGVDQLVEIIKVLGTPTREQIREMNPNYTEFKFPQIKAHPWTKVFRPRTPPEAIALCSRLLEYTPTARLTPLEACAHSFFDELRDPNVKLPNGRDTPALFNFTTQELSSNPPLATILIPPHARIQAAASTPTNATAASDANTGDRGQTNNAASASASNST

[2] = target: T1, Glycogen synthase kinase-3 beta; assay: Inhibition of GSK3beta (unknown origin) assessed as remaining enzyme activity at 1 uM
Target sequence in this assay (P49841 whole entry, looked up): as the sequence (P49841 whole entry) above

[3] = target: Cyclin-dependent kinase 2 (Homo sapiens) (UniProt P24941); assay: Inhibition of CDK2 (unknown origin) assessed as remaining enzyme activity at 1 uM
MDA-MB-231 = assay: Antiproliferative activity against human MDA231 cells by MTT assay; format: functional, cell-based
MCF7 = assay: Antiproliferative activity against human MCF7 cells by MTT assay; format: functional, cell-based
SK-BR-3 = assay: Antiproliferative activity against human SKBR3 cells by MTT assay; format: functional, cell-based
[4] = target: Aurora kinase B (Homo sapiens) (UniProt Q96GD4); assay: Inhibition of Aurora kinase B (unknown origin) assessed as remaining enzyme activity at 1 uM
Sequence of Aurora kinase B (Homo sapiens) (Q96GD4 whole entry): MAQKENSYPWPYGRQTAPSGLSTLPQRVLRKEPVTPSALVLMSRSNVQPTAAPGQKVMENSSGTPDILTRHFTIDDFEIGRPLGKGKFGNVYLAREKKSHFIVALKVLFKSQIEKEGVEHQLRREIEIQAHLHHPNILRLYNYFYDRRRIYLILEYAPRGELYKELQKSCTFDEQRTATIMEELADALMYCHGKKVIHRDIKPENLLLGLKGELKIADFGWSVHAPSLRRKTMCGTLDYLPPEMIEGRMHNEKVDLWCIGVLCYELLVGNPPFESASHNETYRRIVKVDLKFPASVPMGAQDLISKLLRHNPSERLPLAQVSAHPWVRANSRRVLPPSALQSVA

CS(=O)(=O)c1ccc(-c2c[nH]c3ncc(/C=C/C(=O)NCc4ccncc4)cc23)cc1
IC50 [1]: 220 nM

O=C(/C=C/c1cnc2[nH]cc(-c3ccccc3)c2c1)NCc1ccc2[nH]ccc2c1
IC50 [1]: 462 nM

O=C(/C=C/c1cnc2[nH]cc(-c3ccccc3)c2c1)NCc1nc2ccccc2[nH]1
IC50 [1]: 62.1 nM

O=C(/C=C/c1cnc2[nH]cc(-c3ccccc3)c2c1)NCc1ccccn1
IC50 [1]: 167 nM

O=C(/C=C/c1cnc2[nH]cc(-c3ccccc3)c2c1)NCCc1c[nH]c2ncccc12
IC50 [1]: 128 nM

O=C(/C=C/c1cnc2[nH]cc(-c3ccccc3)c2c1)NCCc1ccncc1
IC50 [1]: 43.5 nM

COc1ccc(-c2c[nH]c3ncc(/C=C/C(=O)NCc4ccncc4)cc23)cc1
IC50 [1]: 0.508 nM | Activity [2]: 1.2% | Activity [3]: 97% | IC50 (MDA-MB-231): > 10000 nM | IC50 (MCF7): > 10000 nM | IC50 (SK-BR-3): > 10000 nM

N#Cc1ccc(-c2c[nH]c3ncc(/C=C/C(=O)NCc4ccncc4)cc23)cc1
IC50 [1]: 63.1 nM

O=C(/C=C/c1cnc2[nH]cc(-c3ccccc3)c2c1)NCc1ccco1
IC50 [1]: 77.1 nM

O=C(/C=C/c1cnc2[nH]cc(-c3cccnc3)c2c1)NCc1ccncc1
IC50 [1]: 16.5 nM

CC(=O)c1ccc(-c2c[nH]c3ncc(/C=C/C(=O)NCc4ccncc4)cc23)cc1
IC50 [1]: 1.42 nM

O=C(/C=C/c1cnc2[nH]cc(-c3ccccc3)c2c1)NCCc1c[nH]c2ccccc12
IC50 [1]: 356 nM

O=C(/C=C/c1cnc2[nH]cc(-c3ccccc3)c2c1)NCCc1ccccc1
IC50 [1]: 248 nM

O=C(CNC(=O)c1cnc2[nH]cc(-c3ccncc3)c2c1)NCCc1c[nH]c2ccccc12
IC50 [1]: 994 nM

O=C(/C=C/c1cnc2[nH]cc(-c3ccccc3)c2c1)NCc1ccncc1
IC50 [1]: 3.59 nM

O=C(/C=C/c1cnc2[nH]cc(-c3ccncc3)c2c1)NCc1ccncc1
IC50 [1]: 2.75 nM

NC(=O)c1ccc(-c2c[nH]c3ncc(/C=C/C(=O)NCc4ccncc4)cc23)cc1
IC50 [1]: 4.43 nM

O=C(C/C=C/c1cnc2[nH]cc(-c3ccccc3)c2c1)NCCc1c[nH]c2ccccc12
IC50 [1]: 3760 nM

O=C(C/C=C/c1cnc2[nH]cc(-c3ccccc3)c2c1)NCCc1ccccc1
IC50 [1]: > 50000 nM

O=C(/C=C/c1cnc2[nH]cc(-c3ccccc3)c2c1)NCc1cccnc1
IC50 [1]: 64.2 nM

CC(=O)c1ccc(-c2c[nH]c3ncc(/C=C/C(=O)NCCc4ccccn4)cc23)cc1
IC50 [1]: 1.37 nM | Activity [4]: 23% | Activity [2]: 3.4% | Activity [3]: 85% | IC50 (MDA-MB-231): > 10000 nM | IC50 (MCF7): > 10000 nM | IC50 (SK-BR-3): > 10000 nM

O=C(/C=C/c1cnc2[nH]cc(-c3ccc(F)cc3)c2c1)NCc1ccncc1
IC50 [1]: 22.8 nM

O=C(/C=C/c1cnc2[nH]cc(-c3ccccc3)c2c1)NCCN1CCOCC1
IC50 [1]: 45.7 nM

O=C(/C=C/c1cnc2[nH]cc(-c3ccccc3)c2c1)NCc1ccc2c(c1)CCO2
IC50 [1]: 103 nM

O=C(CNC(=O)c1ccc2[nH]cc(-c3ccncc3)c2c1)NCCc1c[nH]c2ccccc12
IC50 [1]: 33800 nM

O=C(CCc1cnc2[nH]cc(-c3ccccc3)c2c1)NCCc1c[nH]c2ccccc12
IC50 [1]: 1030 nM

O=C(CNC(=O)c1cnc2[nH]cc(-c3ccccc3)c2c1)NCCc1c[nH]c2ccccc12
IC50 [1]: 1450 nM

O=C(CNC(=O)c1ccc2noc(-c3ccccc3)c2c1)NCCc1c[nH]c2ccccc12
IC50 [1]: > 50000 nM

Source: ChEMBL document CHEMBL4428132, “Application of Fragment-Based de Novo Design to the Discovery of Selective Picomolar Inhibitors of Glycogen Synthase Kinase-3 Beta” (J Med Chem, 2016)
